Data taken from paper PMC7127101 (Bioorganic & Medicinal Chemistry Letters, 2010).

Target: SARS-CoV 3CL^pro (Severe acute respiratory syndrome coronavirus, UniProt P0C6X7)
Format: biochemical

| SMILES | Inhibition type | V max | fold smaller IC50 value compared with that of reference compounds |
| --- | --- | --- | --- |
| COC(=O)[C@]1(C)CC[C@]2(C)CC[C@]3(C)C4=CC=C5C(=CC(=O)C(O)=C5C)[C@]4(C)CC[C@@]3(C)[C@@H]2C1 [Compound 2, pristimerin] | Competitive (3.1 ± 0.0) | – | – |
| CC1=C(O)C(=O)C=C2C1=CC=C1[C@@]2(C)CC[C@@]2(C)[C@@H]3C[C@](C)(C(=O)O)CC[C@]3(C)CC[C@]12C [Compound 1, celastrol] | Competitive (4.2 ± 0.6) | – | – |
| CC1=C(O)C(=O)C=C2C1=CC=C1[C@@]2(C)CC[C@@]2(C)[C@@H]3C[C@@H](C)C(=O)C[C@]3(C)CC[C@]12C [Compound 3, tingenone] | Competitive (4.0 ± 0.1) | – | – |
| CC1=CC[C@]2(C)CC[C@]3(C)C4=CC=C5C(=CC(=O)C(O)=C5C)[C@]4(C)CC[C@@]3(C)[C@@H]2C1 [Compound 4, iguesterin] | Competitive (0.8 ± 0.2) | 44.4 ± 6.2 intensity min^−1 | 10 fold |
